Measured values taken from ChEMBL document CHEMBL3792365, “Dioxol and dihydrodioxin analogs of 2- and 3-phenylacetonitriles as potent anti-cancer agents with nanomolar activity against a variety of human cancer cells” (2016).

Columns and labels:
Type in all cases: functional
NCI-H23 = experiment: Growth inhibition of human NCI-H23 cells at 10 uM after 48 hrs by sulforhodamine B assay; details: NCI-H23, 48 h, values are per cent of control
M14 = experiment: Growth inhibition of human M14 cells at 10 uM after 48 hrs by sulforhodamine B assay; details: M14, 48 h, values are per cent of control
[1] = Growth inhibition of human IGROV1 cells at 10 uM after 48 hrs by sulforhodamine B assay; details: IGROV-1, 48 h, values are per cent of control
[2] = Growth inhibition of human OVCAR4 cells at 10 uM after 48 hrs by sulforhodamine B assay; details: OVCAR-4, 48 h, values are per cent of control
[3] = Growth inhibition of human HCT116 cells at 10 uM after 48 hrs by sulforhodamine B assay; details: HCT-116, 48 h, values are per cent of control
MDA-MB-231 = experiment: Growth inhibition of human MDA-MB-231 cells at 10 uM after 48 hrs by sulforhodamine B assay; details: MDA-MB-231, 48 h, values are per cent of control
[4] = Growth inhibition of human SW620 cells at 10 uM after 48 hrs by sulforhodamine B assay; details: SW-620, 48 h, values are per cent of control
[5] = Growth inhibition of human NCI-ADR-RES cells at 10 uM after 48 hrs by sulforhodamine B assay; details: values are per cent of control
[6] = Growth inhibition of human OVCAR5 cells at 10 uM after 48 hrs by sulforhodamine B assay; details: OVCAR-5, 48 h, values are per cent of control
SK-MEL-5 = experiment: Growth inhibition of human SK-MEL-5 cells at 10 uM after 48 hrs by sulforhodamine B assay; details: SK-MEL-5, 48 h, values are per cent of control
[7] = Growth inhibition of human SF268 cells at 10 uM after 48 hrs by sulforhodamine B assay; details: SF-268, 48 h, values are per cent of control
A498 = experiment: Growth inhibition of human A498 cells at 10 uM after 48 hrs by sulforhodamine B assay; details: A498, 48 h, values are per cent of control
[8] = Growth inhibition of human RXF393 cells at 10 uM after 48 hrs by sulforhodamine B assay; details: RXF 393, 48 h, values are per cent of control
SN12C = experiment: Growth inhibition of human SN12C cells at 10 uM after 48 hrs by sulforhodamine B assay; details: values are per cent of control
[9] = Growth inhibition of human UO31 cells at 10 uM after 48 hrs by sulforhodamine B assay; details: UO-31, 48 h, values are per cent of control
K562 = experiment: Growth inhibition of human K562 cells at 10 uM after 48 hrs by sulforhodamine B assay; details: K562, 48 h, values are per cent of control
[10] = Growth inhibition of human SNB75 cells at 10 uM after 48 hrs by sulforhodamine B assay; details: SNB-75, 48 h, values are per cent of control
ACHN = experiment: Growth inhibition of human ACHN cells at 10 uM after 48 hrs by sulforhodamine B assay; details: values are per cent of control
SK-MEL-28 = experiment: Growth inhibition of human SK-MEL-28 cells at 10 uM after 48 hrs by sulforhodamine B assay; details: SK-MEL-28, 48 h, values are per cent of control
[11] = Growth inhibition of human Hs 578T cells at 10 uM after 48 hrs by sulforhodamine B assay; details: values are per cent of control
[12] = Growth inhibition of human SF295 cells at 10 uM after 48 hrs by sulforhodamine B assay; details: SF-295, 48 h, values are per cent of control
HT-29 = experiment: Growth inhibition of human HT-29 cells at 10 uM after 48 hrs by sulforhodamine B assay; details: HT-29, 48 h, values are per cent of control
NCI-H322M = experiment: Growth inhibition of human NCI-H322M cells at 10 uM after 48 hrs by sulforhodamine B assay; details: values are per cent of control
[13] = Growth inhibition of human HCT15 cells at 10 uM after 48 hrs by sulforhodamine B assay; details: HCT-15, 48 h, values are per cent of control
[14] = Growth inhibition of human DU145 cells at 10 uM after 48 hrs by sulforhodamine B assay; details: DU-145, 48 h, values are per cent of control
[15] = Growth inhibition of human SF539 cells at 10 uM after 48 hrs by sulforhodamine B assay; details: SF-539, 48 h, values are per cent of control
[16] = Growth inhibition of human TK10 cells at 10 uM after 48 hrs by sulforhodamine B assay; details: TK-10, 48 h, values are per cent of control
[17] = Growth inhibition of human OVCAR8 cells at 10 uM after 48 hrs by sulforhodamine B assay; details: OVCAR-8, 48 h, values are per cent of control
[18] = Growth inhibition of human HCC2998 cells at 10 uM after 48 hrs by sulforhodamine B assay; details: HCC 2998, 48 h, values are per cent of control
[19] = Growth inhibition of human Caki1 cells at 10 uM after 48 hrs by sulforhodamine B assay; details: CAKI-1, 48 h, values are per cent of control
[20] = Growth inhibition of human SKOV3 cells at 10 uM after 48 hrs by sulforhodamine B assay; details: SK-OV-3, 48 h, values are per cent of control
786-0 = experiment: Growth inhibition of human 786-0 cells at 10 uM after 48 hrs by sulforhodamine B assay; details: 786-0, 48 h, values are per cent of control
[21] = Growth inhibition of human UACC62 cells at 10 uM after 48 hrs by sulforhodamine B assay; details: UACC-62, 48 h, values are per cent of control
A549 = experiment: Growth inhibition of human A549/ATCC cells at 10 uM after 48 hrs by sulforhodamine B assay; details: A549, 48 h, values are per cent of control
[22] = Growth inhibition of human LOXIMVI cells at 10 uM after 48 hrs by sulforhodamine B assay; details: LOX IMVI, values are per cent of control
[23] = Growth inhibition of human COLO205 cells at 10 uM after 48 hrs by sulforhodamine B assay; details: COLO 205, 48 h, values are per cent of control
SK-MEL-2 = experiment: Growth inhibition of human SK-MEL-2 cells at 10 uM after 48 hrs by sulforhodamine B assay; details: SK-MEL-2, 48 h, values are per cent of control
NCI-H460 = experiment: Growth inhibition of human NCI-H460 cells at 10 uM after 48 hrs by sulforhodamine B assay; details: NCI-H460, 48 h, values are per cent of control
NCI-H522 = experiment: Growth inhibition of human NCI-H522 cells at 10 uM after 48 hrs by sulforhodamine B assay; details: NCI-H522, 48 h, values are per cent of control
T47D = experiment: Growth inhibition of human T47D cells at 10 uM after 48 hrs by sulforhodamine B assay; details: values are per cent of control

Structure (SMILES) | growth, % of control at 10 µM (NCI-H23) | growth, % of control at 10 µM (M14) | growth, % of control at 10 µM [1] | growth, % of control at 10 µM [2] | growth, % of control at 10 µM [3] | growth, % of control at 10 µM (MDA-MB-231) | growth, % of control at 10 µM [4] | growth, % of control at 10 µM [5] | growth, % of control at 10 µM [6] | growth, % of control at 10 µM (SK-MEL-5) | growth, % of control at 10 µM [7] | growth, % of control at 10 µM (A498) | growth, % of control at 10 µM [8] | growth, % of control at 10 µM (SN12C) | growth, % of control at 10 µM [9] | growth, % of control at 10 µM (K562) | growth, % of control at 10 µM [10] | growth, % of control at 10 µM (ACHN) | growth, % of control at 10 µM (SK-MEL-28) | growth, % of control at 10 µM [11] | other results
N#C/C(=C\c1ccc(Cl)c(Cl)c1)c1ccc2c(c1)OCO2 | 88% | 96.5% | 67.2% | 26.1% | 70.1% | 80.5% | 89.8% | 79.3% | 99.3% | 98.4% | 80.9% | 94.3% | 94.4% | 93.5% | 73.7% | 94.8% | 20.3% | 49.1% | 105% | 81.3% | growth, % of control at 10 µM [12]: 77%; growth, % of control at 10 µM (HT-29): 102%; growth, % of control at 10 µM (NCI-H322M): 74.1%; growth, % of control at 10 µM [13]: 88.7%; growth, % of control at 10 µM [14]: 94.1%; growth, % of control at 10 µM [15]: 86.9%; growth, % of control at 10 µM [16]: 90.2%; growth, % of control at 10 µM [17]: 70.9%; growth, % of control at 10 µM [18]: 92.1%; growth, % of control at 10 µM [19]: 87.4%; growth, % of control at 10 µM [20]: 70.6%; growth, % of control at 10 µM (786-0): 72.4%; growth, % of control at 10 µM [21]: 108%; growth, % of control at 10 µM (A549): 70%; growth, % of control at 10 µM [22]: 62.7%; growth, % of control at 10 µM [23]: 93.2%; growth, % of control at 10 µM (SK-MEL-2): 89.7%; growth, % of control at 10 µM (NCI-H460): 84.7%; growth, % of control at 10 µM (NCI-H522): 82.7%; growth, % of control at 10 µM (T47D): 74.7%
N#C/C(=C\c1c(Cl)cccc1Cl)c1ccc2c(c1)OCO2 | 93.7% | 89.7% | 85.6% | 79.9% | 89.7% | 95.8% | 99.9% | 103% | 103% | 93.5% | 102% | 82.7% | 96.1% | 95.9% | 80.1% | 77.5% | 51.5% | 103% | 104% | 101% | growth, % of control at 10 µM [12]: 95.6%; growth, % of control at 10 µM (HT-29): 93.7%; growth, % of control at 10 µM (NCI-H322M): 102%; growth, % of control at 10 µM [13]: 92.6%; growth, % of control at 10 µM [14]: 99.3%; growth, % of control at 10 µM [15]: 97.9%; growth, % of control at 10 µM [16]: 81%; growth, % of control at 10 µM [17]: 92.6%; growth, % of control at 10 µM [18]: 89.9%; growth, % of control at 10 µM [19]: 83.2%; growth, % of control at 10 µM [20]: 97.9%; growth, % of control at 10 µM (786-0): 95.6%; growth, % of control at 10 µM [21]: 86.4%; growth, % of control at 10 µM (A549): 79.9%; growth, % of control at 10 µM [22]: 98.9%; growth, % of control at 10 µM [23]: 99.6%; growth, % of control at 10 µM (SK-MEL-2): 90.6%; growth, % of control at 10 µM (NCI-H460): 102%; growth, % of control at 10 µM (NCI-H522): 65.4%; growth, % of control at 10 µM (T47D): 83.8%
